The values below come from article PMC4422956 (EJNMMI Research, 2014).

Experiment [1] has as its target T1, human DA D2L receptor (Homo sapiens, UniProt P14416).
T1 construct: gene DRD2; full-length D2L stably expressed in HEK 293 cells
In words: cAMP accumulation, HEK […] cells. The note with it: read-out: cAMP / Potency (converted). Format: cell-based.

Experiment [2] deals with T1, human DA D2L receptor. In words: 3H-spiperone radioligand binding, membranes. The note with it: read-out: pK i D 2 -high (converted). From the text:
3H-spiperone radioligand binding, membranes on human DA D2L receptor

T1 sequence (P14416 whole entry): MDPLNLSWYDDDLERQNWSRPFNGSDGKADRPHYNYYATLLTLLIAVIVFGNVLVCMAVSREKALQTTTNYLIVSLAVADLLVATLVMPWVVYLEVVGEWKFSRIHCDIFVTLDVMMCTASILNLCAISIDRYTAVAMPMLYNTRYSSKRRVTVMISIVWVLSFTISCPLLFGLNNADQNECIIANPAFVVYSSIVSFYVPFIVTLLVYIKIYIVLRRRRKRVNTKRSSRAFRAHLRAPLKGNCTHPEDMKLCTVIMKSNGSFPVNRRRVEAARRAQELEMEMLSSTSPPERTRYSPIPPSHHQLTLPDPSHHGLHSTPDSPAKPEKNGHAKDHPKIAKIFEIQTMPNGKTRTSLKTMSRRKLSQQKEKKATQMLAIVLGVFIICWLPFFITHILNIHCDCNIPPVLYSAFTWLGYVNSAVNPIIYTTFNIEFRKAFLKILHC

Turning to `CCN1CCC[C@H]1CNC(=O)c1c(OC)ccc(I)c1O` [IBZM], the EC50 in experiment [1] is 0.832 nM. The Ki in experiment [2] is 102 nM.
